Experiment: Stability of the fraction in raw material solution (HPLC content of UL4, UL5)
Assay type: physicochemical
Settings: for content stability Results: over 12 weeks
Experimental: A solution obtained by dissolving powder of the Gynostemma pentaphyllum gypenoside fraction at a concentration of 4% in 100 mL of a mixed solvent of propylene glycol, glycerin and distilled water at a ratio of 5:3:2 was used to identify stability of the Gynostemma pentaphyllum gypenoside fraction in a raw material state. While the solution was being stored under a condition of 4° C., 30° C. and 45° C. and sunlight for 12 weeks, changes with passage of time (% compared to an initial content) in the gypenosides UL4 and UL5, which were index ingredients for quantification out of the Gynostemma pentaphyllum gypenosides, were observed through an HPLC analysis and results thereof were indicated in Table 3.

content, % compared to an initial content (4° C., 1 week) | content, % compared to an initial content (4° C., 2 weeks) | content, % compared to an initial content (4° C., 4 weeks) | content, % compared to an initial content (4° C., 8 weeks) | content, % compared to an initial content (4° C., 12 weeks) | content stability Results (4° C.) | content, % compared to an initial content (30° C., 1 week) | content, % compared to an initial content (30° C., 2 weeks) | content, % compared to an initial content (30° C., 4 weeks) | content, % compared to an initial content (30° C., 8 weeks) | content, % compared to an initial content (30° C., 12 weeks) | content stability Results (30° C.) | content, % compared to an initial content (45° C., 1 week) | content, % compared to an initial content (45° C., 2 weeks) | content, % compared to an initial content (45° C., 4 weeks) | content, % compared to an initial content (45° C., 8 weeks) | content, % compared to an initial content (45° C., 12 weeks) | content stability Results (45° C.) | content, % compared to an initial content (Sunlight, 1 week) | content, % compared to an initial content (Sunlight, 2 weeks) | SMILES | other results
100.2% | 98.1% | 96.9% | 98.3% | 96.1% | Stable | 102.8% | 99.9% | 98.7% | 96.5% | 96.6% | Stable | 97.1% | 96.3% | 102.7% | 97.5% | 102.4% | Stable | 97.6% | 96.6% | CC(C)=CC1C[C@](O)([C@H]2CC[C@]3(C)[C@@H]2CC[C@@H]2[C@@]4(C=O)CC[C@H](O[C@@H]5OC[C@H](O)[C@H](O[C@@H]6OC[C@@H](O)[C@H](O)[C@H]6O)[C@H]5O[C@@H]5O[C@@H](C)[C@H](O)[C@@H](O)[C@H]5O)C(C)(C)[C@@H]4CC[C@]23C)[C@H](O)O1 (stereo partly drawn) [Gypenoside UL4, (23ξ)-3β,20β,21α-trihydroxy-19-oxo-21,23-epoxy-dammar-24-ene-3-O-[α-L-rhamnopyranosyl (1→2)][β-D-xylopyranosyl (1→3)]-α-L-arabinopyranoside] | content, % compared to an initial content (Sunlight, 4 weeks): 96.6%; content, % compared to an initial content (Sunlight, 8 weeks): 98.1%; content, % compared to an initial content (Sunlight, 12 weeks): 97.1%; content stability Results (Sunlight): Stable
98.8% | 101.3% | 97% | 97.9% | 98.1% | Stable | 101.8% | 98.2% | 99% | 101.2% | 102.9% | Stable | 97.6% | 97.5% | 96.9% | 99.2% | 103.8% | Stable | 101.1% | 98.4% | CC(C)=CC1C[C@](O)([C@H]2CC[C@]3(C)[C@@H]2CC[C@@H]2[C@@]4(C=O)CC[C@H](O[C@@H]5OC[C@H](O)[C@H](O[C@@H]6O[C@H](CO)[C@@H](O)[C@H](O)[C@H]6O)[C@H]5O[C@@H]5O[C@@H](C)[C@H](O)[C@@H](O)[C@H]5O)C(C)(C)[C@@H]4CC[C@]23C)[C@H](O)O1 (stereo partly drawn) [Gypenoside UL5, (23ξ)-3β,20β,21α-trihydroxy-19-oxo-21,23-epoxy-dammar-24-ene-3-O-[α-L-rhamnopyranosyl (1→2)][β-D-glucopyranosyl (1→3)]-α-L-arabinopyranoside] | content, % compared to an initial content (Sunlight, 4 weeks): 98.8%; content, % compared to an initial content (Sunlight, 8 weeks): 97.2%; content, % compared to an initial content (Sunlight, 12 weeks): 97.8%; content stability Results (Sunlight): Stable

Reference: patent US11007136B2, “Cosmetic composition for wrinkle reduction containing gypenoside isolated from Gynostemma pentaphyllum” (CELLTRION INC., priority 2015, dated 2021)
